Test results from ChEMBL document CHEMBL1201862, “PubChem BioAssay data set” (2004).
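Values below derive from 48-hour exposures of cells grown in 96-well plates, with endpoints linearly interpolated between the two concentrations bracketing the appropriate inhibition level. At the GI50, growth is halved.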 The source made the active and inactive calls. Rule as the data show it: active = GI50 up to about 1.1 µM and inactive = higher.

What was measured:
Assay in all cases: growth of human tumour cells (NCI), 48 h
UACC-62 = tested on: UACC-62
SK-MEL-28 = tested on: SK-MEL-28
786-0 = tested on: 786-0
OVCAR-8 = tested on: OVCAR-8
A498 = tested on: A498
HCT-116 = tested on: HCT-116
CAKI-1 = tested on: CAKI-1
SF-295 = tested on: SF-295
COLO 205 = tested on: COLO 205
CCRF-CEM = tested on: CCRF-CEM
HCC 2998 = tested on: HCC 2998
SK-MEL-2 = tested on: SK-MEL-2
SF-268 = tested on: SF-268
NCI-H522 = tested on: NCI-H522
RPMI-8226 = tested on: RPMI-8226
EKVX = tested on: EKVX
HT-29 = tested on: HT-29
M14 = tested on: M14
HOP-62 = tested on: HOP-62
RXF 393 = tested on: RXF 393

Measured: GI50

O=C1c2ccccc2C(=O)c2c1ccc(C(=O)O)c2-c1ccc2ccccc2c1
inactive: UACC-62 18.2 µM | SK-MEL-28 40.2 µM | 786-0 28.2 µM | OVCAR-8 33.5 µM | A498 29 µM | HCT-116 20.7 µM | CAKI-1 29.3 µM | SF-295 28.5 µM | COLO 205 10.4 µM | CCRF-CEM 23.3 µM | HCC 2998 25.9 µM | SK-MEL-2 19.1 µM | SF-268 28 µM | NCI-H522 23.7 µM | RPMI-8226 27.7 µM | EKVX 20.6 µM | HT-29 32.5 µM | M14 20.5 µM | HOP-62 32.2 µM

N=C(N)NS(=O)(=O)c1ccc(NC(=O)c2cccc3c(Nc4ccc(S(=O)(=O)N=C(N)N)cc4)c4ccccc4nc23)cc1
inactive: UACC-62 45.8 µM | SK-MEL-28 82.8 µM | RXF 393 99.1 µM | 786-0 50.9 µM | OVCAR-8 32.3 µM | A498 47.4 µM | HCT-116 38 µM | CAKI-1 > 10 µM | SF-295 88.1 µM | COLO 205 31.3 µM | CCRF-CEM 43.9 µM | SK-MEL-2 > 100 µM | SF-268 62.5 µM | NCI-H522 7.94 µM | RPMI-8226 > 100 µM | EKVX 71 µM | HT-29 42.1 µM | M14 50.8 µM | HOP-62 > 100 µM

O=C(O)c1ccccc1/C=N\N=C1NCCCCN1
inactive: UACC-62 > 100 µM | 786-0 > 100 µM | OVCAR-8 > 100 µM | A498 > 100 µM | HCT-116 > 100 µM | CAKI-1 > 100 µM | SF-295 > 100 µM | COLO 205 > 100 µM | CCRF-CEM > 100 µM | HCC 2998 > 100 µM | SK-MEL-2 > 100 µM | SF-268 > 100 µM | NCI-H522 > 100 µM | RPMI-8226 > 100 µM | EKVX > 100 µM | HT-29 > 100 µM | M14 > 100 µM | HOP-62 > 100 µM

O=C1OC2C(O)COC2(O)C1(O)Cc1c[nH]c2ccccc12 (stereo not drawn)
inactive: UACC-62 > 100 µM | RXF 393 > 100 µM | 786-0 > 100 µM | OVCAR-8 > 100 µM | A498 > 100 µM | HCT-116 > 100 µM | CAKI-1 > 100 µM | SF-295 > 100 µM | COLO 205 > 100 µM | CCRF-CEM > 100 µM | SK-MEL-2 > 100 µM | SF-268 > 100 µM | NCI-H522 > 100 µM | RPMI-8226 > 100 µM | EKVX > 100 µM | HT-29 > 100 µM | M14 > 100 µM | HOP-62 > 100 µM

O=C1c2ccccc2-c2ccc(NC(=O)C3CCCCC3C(=O)O)cc21 (stereo not drawn)
inactive: UACC-62 > 100 µM | SK-MEL-28 > 100 µM | RXF 393 > 100 µM | 786-0 > 100 µM | OVCAR-8 > 100 µM | A498 > 100 µM | HCT-116 > 100 µM | CAKI-1 > 100 µM | SF-295 > 100 µM | COLO 205 > 100 µM | CCRF-CEM > 100 µM | SK-MEL-2 > 100 µM | SF-268 > 100 µM | NCI-H522 > 100 µM | RPMI-8226 > 100 µM | EKVX > 100 µM | HT-29 87.3 µM | M14 > 100 µM | HOP-62 > 100 µM

Cn1ncc2c(Nc3ccc(Cl)cc3)c3ccccc3nc21
inactive: UACC-62 15.1 µM | SK-MEL-28 15.3 µM | 786-0 14.1 µM | OVCAR-8 14.8 µM | A498 14.8 µM | HCT-116 12.2 µM | CAKI-1 21.8 µM | SF-295 17.7 µM | COLO 205 19.7 µM | CCRF-CEM 17.9 µM | HCC 2998 22.9 µM | SK-MEL-2 18.4 µM | SF-268 20.3 µM | NCI-H522 19.4 µM | RPMI-8226 20.1 µM | EKVX > 10 µM | HT-29 13.5 µM | M14 14.8 µM | HOP-62 16.4 µM

COc1cc(OC)c(Oc2cccc(OC)c2OC)c(OC)c1
inactive: UACC-62 > 100 µM | SK-MEL-28 > 100 µM | 786-0 > 100 µM | OVCAR-8 > 100 µM | A498 > 100 µM | HCT-116 > 100 µM | CAKI-1 > 100 µM | SF-295 > 100 µM | COLO 205 > 100 µM | CCRF-CEM > 100 µM | HCC 2998 > 100 µM | SK-MEL-2 > 100 µM | SF-268 > 100 µM | NCI-H522 > 100 µM | EKVX > 100 µM | HT-29 > 100 µM | M14 > 100 µM | HOP-62 > 100 µM

CC#CC#C/C(=C/C=CC(=O)OC)SC
inactive: UACC-62 > 100 µM | SK-MEL-28 > 100 µM | 786-0 > 100 µM | OVCAR-8 > 100 µM | A498 > 100 µM | HCT-116 > 100 µM | CAKI-1 > 100 µM | SF-295 > 100 µM | COLO 205 > 100 µM | CCRF-CEM > 10 µM | HCC 2998 > 100 µM | SK-MEL-2 > 100 µM | SF-268 > 100 µM | NCI-H522 > 100 µM | EKVX > 100 µM | HT-29 > 100 µM | M14 > 100 µM

CCOC(=O)CC(NC(=O)c1nc[nH]c1/N=N/N(C)C)C(=O)OCC (stereo not drawn)
inactive: UACC-62 > 100 µM | SK-MEL-28 > 100 µM | 786-0 > 100 µM | OVCAR-8 > 100 µM | A498 > 100 µM | HCT-116 > 100 µM | CAKI-1 > 100 µM | SF-295 > 100 µM | COLO 205 > 100 µM | CCRF-CEM > 100 µM | HCC 2998 > 100 µM | SK-MEL-2 > 100 µM | SF-268 > 100 µM | NCI-H522 > 100 µM | RPMI-8226 > 100 µM | EKVX > 100 µM | HT-29 > 100 µM | M14 > 100 µM | HOP-62 > 100 µM

O=C(O)CCC(=O)Nc1ccc2c(c1)S(=O)(=O)N(CC(=O)O)C2=O
inactive: UACC-62 > 100 µM | SK-MEL-28 > 100 µM | 786-0 > 100 µM | OVCAR-8 > 100 µM | A498 > 100 µM | HCT-116 > 100 µM | CAKI-1 > 100 µM | SF-295 > 100 µM | COLO 205 > 100 µM | CCRF-CEM > 100 µM | HCC 2998 > 100 µM | SK-MEL-2 > 100 µM | NCI-H522 > 100 µM | RPMI-8226 > 100 µM | EKVX > 100 µM | HT-29 > 100 µM | M14 > 100 µM | HOP-62 > 100 µM

C#Cc1cccc(N2C(=O)CCC2=O)c1
inactive: UACC-62 18.2 µM | SK-MEL-28 18.1 µM | 786-0 18 µM | OVCAR-8 18.5 µM | A498 15.6 µM | HCT-116 9.08 µM | CAKI-1 13.6 µM | SF-295 15.6 µM | COLO 205 6.73 µM | CCRF-CEM 1.56 µM | HCC 2998 15 µM | SK-MEL-2 19.9 µM | SF-268 17.7 µM | NCI-H522 4.17 µM | RPMI-8226 2.49 µM | EKVX 18.3 µM | HT-29 12.1 µM | M14 7.62 µM | HOP-62 > 10 µM
